Assay results reported in patent US20230263822A1, “MODULATION OF FACTOR 11 EXPRESSION” (Ionis Pharmaceuticals, Inc., priority 2008, published 2023).
Strand notation (5' to 3'): a small letter for the sugar, then the base; units joined by * are phosphorothioate-linked, units joined directly phosphodiester-linked; [ ] holds rarer units or linkages, { } end groups; capitals alone tell only the bases. e = 2'-O-(2-methoxyethyl) (MOE); [5mC] = 5-methylcytosine; d = 2'-deoxy (DNA)

Legend:
[1] = Tolerability in CD1 mice: liver function (Example 41); settings: 50 mg/kg s.c. twice per week for 6 weeks, plasma
[2] = Tolerability in CD1 mice: body weight and organ weight (Example 41); settings: 50 mg/kg s.c. twice per week for 6 weeks; for body weight: increase in grams over the PBS control weight taken before the start of treatment; for Kidney weight / Liver weight / Spleen weight: percentage of the body weight
[3] = Tolerability in Sprague-Dawley rats: liver function (Example 35); settings: plasma, 50 mg/kg s.c. twice per week for 6 weeks
platelet aggregation = assay: Platelet aggregation assay, ADP and/or collagen (Example 45); type: in vivo, cynomolgus monkeys; settings: escalating dose regimen
Description: (§1) Groups, each consisting of two male and three female monkeys, were injected subcutaneously with ISIS 416838, ISIS 416850, ISIS 416858, ISIS 416864, or ISIS 417002 in escalating doses. Antisense oligonucleotide was administered to the monkeys at 5 mg/kg three times per a week for week 1; 5 mg/kg twice per week for weeks 2 and 3; 10 mg/kg three times per week for week 4; 10 mg/kg twice per week for weeks 5 and 6; 25 mg/kg three times per week for week 7; and 25 mg/kg twice per week for weeks 8, 9, 10, 11, and 12. One control group, consisting of two male and three female monkeys, was injected subcutaneously with PBS according to the same dosing regimen. An additional experimental group, consisting of two male and three female monkeys, was injected subcutaneously with ISIS 416850 in a chronic, lower dose regimen. Antisense oligonucleotide was administered to the monkeys at 5 mg/kg three times per week for week 1; 5 mg/kg twice per week for week 2 and 3; 10 mg/kg three times per week for week 4; and 10 mg/kg twice per week for weeks 5 to 12. Body weights were measured weekly. Blood samples were collected 14 days and 5 days before the start of treatment and subsequently once per week for Factor 11 protein activity analysis in plasma, fibrinogen measurement, PT and aPTT measurements, bleeding times, and measurement of various hematologic factors. On day 85, the monkeys were euthanized by exsanguination while under deep anesthesia, and organs harvested for further analysis.
Platelet aggregation was initiated by adding 1 mmol/L ADP and/or 3 μg collagen (depending on the collection day, as outlined in Table 121) to plasma samples, and was allowed to proceed for 10 minutes. Aggregation was characterized by recording the change in the electrical resistance or impedance and the change in the initial slope of aggregation after platelet shape change. The aggregation test was performed twice per sample on each collection day and the average value was taken. The ISIS oligonucleotide, ISIS 416850, given with the chronic dose regimen is distinguished from the other oligonucleotides with an asterisk (*).

[4] = Bleeding assay, Surgicutt Jr. device (Example 45); type: in vivo, cynomolgus monkeys; design: unit not given here; settings: escalating dose regimen
Description: as §1
On different days during the treatment period, bleeding assay was performed using a Surgicutt Jr. device (ITC, New Jersey). Monkeys were placed in monkey chair with their arm placed in a steady support. The arm was lightly shaved and a sphygmomanometer was placed on the upper arm. The cuff of the sphygmomanometer was inflated to 40 mm Hg and this pressure was maintained throughout the procedure. The area on the upper arm to be incised was cleansed with an antiseptic swab and the Surgicutt Jr device was used to make an incision over the lateral aspect, volar surface of the forearm, parallel to and 5 cm below the antecubital crease. At the exact moment the incision was made, a stopwatch was started. Every 30 seconds, blood from the incision was blotted out using a blotting paper without directly touching the incision, so that formation of the platelet plug was not disturbed. Blood was blotted out every 30 seconds until blood no longer stained the paper. The stopwatch was then stopped and the bleeding time determined. The sphygmomanometer was removed from the animal's arm, the incision site was antiseptically swabbed and a wound closure strip applied. The ISIS oligonucleotide, ISIS 416850, given with the chronic dose regimen is distinguished from the other oligonucleotides with an asterisk (*).

[5] = Tolerability in CD1 mice: body weight and organ weights (Example 37); settings: 50 mg/kg s.c. twice per week for 6 weeks; for body weight: increase in grams over the PBS control weight taken before the start of treatment; for Kidney weight / Liver weight / Spleen weight: percentage of the body weight
Description: Body weight was measured at the onset of the study and subsequently twice per week. The body weights of the mice are presented in Table 80 and are expressed increase in grams over the PBS control weight taken before the start of treatment. Liver, spleen, and kidney weights were measured at the end of the study, and are also presented in Table 80 as percentage of the body weight.

[6] = Tolerability in CD1 mice: liver function, ALT, AST, bilirubin, albumin (Example 33); settings: plasma, 50 mg/kg s.c. twice a week
Description: A control group of five mice was injected subcutaneously with PBS for 2 weeks. All experimental groups (i.e. ASO treated mice at 2, 4, 6 weeks) were compared to the control group (i.e. PBS, 2 weeks).
To evaluate the effect of ISIS oligonucleotides on hepatic function, plasma concentrations of transaminases were measured using an automated clinical chemistry analyzer (Hitachi Olympus AU400e, Melville, N.Y.). […] Plasma levels of bilirubin and albumin were also measured using the same clinical chemistry analyzer and expressed in mg/dL.

[7] = Tolerability in Sprague-Dawley rats: hematology assays (Example 35); settings: 50 mg/kg s.c. twice per week for 6 weeks; for HCT / MCH / MCHC / MCV: title says % control

ISIS 445522: 5-8-5 or 6-8-6 MOE microwalk gapmer (Table 44) (antisense eG*e[5mC]*eA*e[5mC]*eA*dG*dT*dT*dT*d[5mC]*dT*dG*dG*e[5mC]*eA*eG*eG*e[5mC])
ALT [1]: 51 IU/L | AST [1]: 110 IU/L | Albumin [1]: 3.4 | Bilirubin [1]: 0.19 mg/dL | body weight [2]: 11 g | Kidney weight [2]: 1.7% | Liver weight [2]: 6% | Spleen weight [2]: 0.4%

ISIS 416858: MOE gapmer, nucleobases 1275 to 1318 of SEQ ID NO: 1 (Table 8) (antisense ACGGCATTGGTGCACAGTTT; MOE gapmer, wing and gap sizes not given here)
ALT [3]: 13 IU/L | AST [3]: 4 IU/L | Albumin [3]: 2 | Bilirubin [3]: 4 mg/dL | platelet aggregation (platelet aggregation; day 15 (with ADP)): 19 Ohms | platelet aggregation (platelet aggregation; day 36 (with ADP)): 17 Ohms | platelet aggregation (platelet aggregation; day 43 (with collagen)): 16 Ohms | platelet aggregation (platelet aggregation; day 57 (with ADP)): 11 Ohms | platelet aggregation (platelet aggregation; day 64 (with collagen)): 14 Ohms | platelet aggregation (platelet aggregation; day 78 (with ADP)): 8 Ohms | platelet aggregation (platelet aggregation; day 85 (with ADP)): 18 Ohms | platelet aggregation (platelet aggregation; day 85 (with collagen)): 23 Ohms | platelet aggregation (platelet aggregation; day −5 (with collagen)): 22 Ohms | bleeding time ([4]; day 15): 146 | bleeding time ([4]; day 22): 100 | bleeding time ([4]; day 36): 206 | bleeding time ([4]; day 43): 111 | bleeding time ([4]; day 57): 138 | bleeding time ([4]; day 64): 113 | bleeding time ([4]; day 78): 186 | bleeding time ([4]; day 85): 191 | bleeding time ([4]; day −5): 149 | bleeding time ([4]; day −14): 154 | body weight [5]: 12 g | Kidney weight [5]: 1.6% | Liver weight [5]: 7% | Spleen weight [5]: 0.6% | ALT ([6]; 2 weeks): 190 IU/L | AST ([6]; 2 weeks): 236 IU/L | Albumin ([6]; 2 weeks): 3.4 | Bilirubin ([6]; 2 weeks): 0.57 mg/dL | ALT ([6]; 4 weeks): 57 IU/L | AST ([6]; 4 weeks): 108 IU/L | Albumin ([6]; 4 weeks): 3.5 | Bilirubin ([6]; 4 weeks): 0.24 mg/dL | ALT ([6]; 6 weeks): 216 IU/L | AST ([6]; 6 weeks): 178 IU/L | Albumin ([6]; 6 weeks): 2.8 | Bilirubin ([6]; 6 weeks): 0.16 mg/dL | Platelets [7]: 19 10^3/μL | RBC [7]: 2 | WBC [7]: 28 nL⁻¹ | lymphocytes [7]: 3% | monocytes [7]: 10% | neutrophils [7]: 20% | HCT [7]: 3% | MCH [7]: 2 | MCHC [7]: 1% | MCV [7]: 2

ISIS 416864: MOE gapmer, nucleobases 1275 to 1318 of SEQ ID NO: 1 (Table 8) (antisense GGCAGCGGACGGCATTGGTG; MOE gapmer, wing and gap sizes not given here)
ALT [3]: 471 IU/L | AST [3]: 68 IU/L | Albumin [3]: 4 | Bilirubin [3]: 3 mg/dL | platelet aggregation (platelet aggregation; day 15 (with ADP)): 20 Ohms | platelet aggregation (platelet aggregation; day 36 (with ADP)): 17.8 Ohms | platelet aggregation (platelet aggregation; day 43 (with collagen)): 20 Ohms | platelet aggregation (platelet aggregation; day 57 (with ADP)): 18 Ohms | platelet aggregation (platelet aggregation; day 64 (with collagen)): 17 Ohms | platelet aggregation (platelet aggregation; day 78 (with ADP)): 13 Ohms | platelet aggregation (platelet aggregation; day 85 (with ADP)): 22 Ohms | platelet aggregation (platelet aggregation; day 85 (with collagen)): 28 Ohms | platelet aggregation (platelet aggregation; day −5 (with collagen)): 27 Ohms | bleeding time ([4]; day 15): 153 | bleeding time ([4]; day 22): 133 | bleeding time ([4]; day 36): 205 | bleeding time ([4]; day 43): 146 | bleeding time ([4]; day 57): 216 | bleeding time ([4]; day 64): 218 | bleeding time ([4]; day 78): 170 | bleeding time ([4]; day 85): 203 | bleeding time ([4]; day −5): 111 | bleeding time ([4]; day −14): 166 | body weight [5]: 12 g | Kidney weight [5]: 1.6% | Liver weight [5]: 5% | Spleen weight [5]: 0.3% | ALT ([6]; 2 weeks): 44 IU/L | AST ([6]; 2 weeks): 58 IU/L | Albumin ([6]; 2 weeks): 3.5 | Bilirubin ([6]; 2 weeks): 0.40 mg/dL | ALT ([6]; 4 weeks): 33 IU/L | AST ([6]; 4 weeks): 46 IU/L | Albumin ([6]; 4 weeks): 3.6 | Bilirubin ([6]; 4 weeks): 0.26 mg/dL | ALT ([6]; 6 weeks): 92 IU/L | AST ([6]; 6 weeks): 101 IU/L | Albumin ([6]; 6 weeks): 3.5 | Bilirubin ([6]; 6 weeks): 0.22 mg/dL | Platelets [7]: 12 10^3/μL | RBC [7]: 4 | WBC [7]: 15 nL⁻¹ | lymphocytes [7]: 2% | monocytes [7]: 29% | neutrophils [7]: 26% | HCT [7]: 2% | MCH [7]: 2 | MCHC [7]: 4% | MCV [7]: 4

ISIS 445531: 5-8-5 or 6-8-6 MOE microwalk gapmer (Table 44) (antisense eG*eG*e[5mC]*eA*eT*dT*dG*dG*dT*dG*d[5mC]*dA*d[5mC]*eA*eG*eT*eT*eT)
ALT [1]: 60 IU/L | AST [1]: 127 IU/L | Albumin [1]: 3.2 | Bilirubin [1]: 0.16 mg/dL | body weight [2]: 10 g | Kidney weight [2]: 1.5% | Liver weight [2]: 6% | Spleen weight [2]: 0.5%
